In a melting point compilation (Tetko et al.; mined from patent text by program, amines drawn as free bases though some values may be those of a salt):

| SMILES | melting point [°C] |
| --- | --- |
| CN(C)c1nn2nnnc2c2c1CCCC2 | 239 to 240 |
| O=C(Nc1cc2[nH]c(=O)c(=O)[nH]c2cc1[N+](=O)[O-])C(F)(F)F | > 320 |
| COC(=O)C1CN(C(=O)C2=Cc3cc(OC)c(OC)cc3CCC2)CCN1 (stereo not given) | 103 to 104 |
| CCCC(=O)c1cnc2nc(C)c(OCC)cc2c1O | 240 to 241 |
| Cc1c2c(nc3ccccc13)CCN(C(=O)C(F)(F)F)CC2 | 147 |
| CCCCCCCC(=O)Nc1ccc2c(C(F)(F)F)cc(=O)oc2c1 | 137 |
| Oc1ccc(C(F)(F)C(F)(F)OC(F)(F)C(F)(F)OC(F)(F)C(F)(F)c2ccc(O)cc2)cc1 | 118 to 120 |
| O=C(Oc1ccccc1)C1CCCc2ccc([N+](=O)[O-])cc21 (stereo not given) | 83 to 84 |
| Cc1ccc(C(=O)NC(NC(=S)Nc2cccc(C)c2)C(F)(F)F)cc1 (stereo not given) | 197 to 198 |
| COC(=O)c1cc2ccc(S)cc2nc1OC | 103 to 105 |
| CCN(C)c1nn(C)c2ncc(-c3ccncc3)cc12 | 182 to 197 |
| CCCCc1nc2cnccc2n1Cc1ccc(C(=O)O)cc1 | 210 |
| CN1CCc2c(Cl)c(O)c(O)c(Sc3ccccc3)c2CC1 | 173 to 174 |
| CC(=O)N1C(C(=O)O)CSC1C(C)c1ccc(CC(C)C)cc1 (stereo not given) | 150 to 153 |
| O=C(C(Cl)Cl)N1CCN(c2ccc([N+](=O)[O-])cc2)CC1 | 155 |
| CC(C)N(Sc1ccc([N+](=O)[O-])cc1C(Cl)(Cl)Cl)C(C)C | 104 |
| Cc1coc2c1C(C)(O)C1=C(CCCC1C)C2=O (stereo not given) | 139 to 141 |
| O=c1c2ccccc2cc(Cl)c2ccccc12 | 118 to 121 |
| COC(=O)CCCNS(=O)(=O)c1ccc2ccccc2c1 | 123 to 125 |
| O=C(O)CCc1ccc(Sc2ccc(CCC(=O)O)cc2C(F)(F)F)c(C(F)(F)F)c1 | 175 to 178 |
| CNC(=O)[C@@H]1C[C@H](SCc2ccc(OC)cc2)CN1CCO | 88 to 89.5 |
| O=C(O)C(=O)CC(=O)c1cccn1Cc1cccc(F)c1F | 154 to 156 |

| SMILES | melting point [°C] |
| --- | --- |
| CO/C=C(/C(=O)OC)n1cccc1C=O | 58 to 59 |
| CC1(C)COP(=O)(OC(C#N)c2cccc(Oc3ccccc3)c2)OC1 (stereo not given) | 140 |
| CN1CCC(=O)C(=C2SC=CS2)C1=O | 148 to 153 |
| CN(c1ccc([N+](=O)[O-])cc1[N+](=O)[O-])S(=O)(=O)c1ccccc1 | 152 to 153 |
| Clc1ccc2[nH]c(Cc3ccccc3)c(C3=NCCN3)c2c1 | 299 to 300 |
| Cn1c2c(c3ccccc31)C(=O)NCC2 | 240 to 244 |
| O=C(CSc1nc2ccccc2[nH]1)c1ccc(Br)cc1 | 241 to 245 |
| CCCCC(CC)COc1ccc2c(c1)C(=O)c1ccc(OCC(CC)CCCC)cc1C2=O (stereo not given) | 49 to 51 |
| CC(=O)O[C@H]1C[C@@H](n2cnc3c(=O)[nH]cnc32)[C@H](O)[C@@H]1O (racemic) | 240 to 242 |
| CCCCCCCCCc1nnc(C2=C(O)c3ccccc3S(=O)(=O)N2C)o1 | 61.5 to 62 |
| O=C(O)c1ccc2c(c1)ncn2-c1cc(Cl)ccc1O | 308 to 310 |
| O=c1oc2ccccc2c(O)c1C1CC(c2ccc(Cc3ccc(-c4ccccc4)cc3)cc2)Cc2ccccc21 (stereo not given) | 118 to 121 |
| O=C(O)CCC(=O)c1ccc(NC(=O)c2ccccc2F)cc1 | 191 to 193 |
| COc1cc(-c2nc(C)c(C(C)=NNC(N)=O)s2)cc(OC)c1OC | 240 to 242 |
| CCCCCCCCCCCOc1cccc(C(=O)O)c1 | 88 |
| CCOC(=O)c1cn(-c2ncc(F)c(NC(C)(C)C)n2)c2c(Cl)c(F)c(F)cc2c1=O | 201 to 205 |
| O=C(NNc1ccccc1)C1CSC(c2cccnc2)N1 (stereo not given) | 155 |
| CCOC(CNc1nncs1)OCC | 108 to 112 |
| Cc1cc(C(=O)c2cccs2)cc(C)c1OCC(=O)O | 115 |
| CCCCCCCCCCCCOC(=O)CS(=O)(=O)Nc1c(C(C)C)cccc1C(C)C | 58 to 59 |
| O=[N+]([O-])c1ccc(C=NCCc2cccs2)cc1 | 83.9 to 84.4 |
| c1cc2c(c(OCC3CO3)c1)CC1OC1C2 (stereo not given) | 85 to 87 |

| SMILES | melting point [°C] |
| --- | --- |
| N#Cc1cccc(-c2ccc3c(Cl)cnc(NC(=N)N)c3c2)c1 | > 300 |
| C[C@H](NC(=O)CC1CCC(=O)CC1)c1ccccc1 | 110 to 151 |
| N#C[C@H]1CC(F)(F)CN1C(=O)CNC1(CO)CCC2(CCOCC2)CC1 | 128 |
| CC(=O)NC[C@H]1CN(c2ccc(N3CCC(n4cccc4)CC3)c(F)c2)C(=O)O1 | 208 to 210 |
| CC(C)/C=C(\C[C@H](N)C(=O)O)C(=O)O | > 200 |
| CS(=O)(=O)N1CCC(Nc2nc(Cl)nc(Nc3cccc(C(F)(F)F)c3)n2)CC1 | 220 to 222 |
| COc1cccc(C2(C(C)(C)O)CCN(C)CC2)c1OC | 97 |
| CCn1c(=O)oc(=O)c2ccccc21 | 110 to 112 |
| CC(C)(C)OC(=O)N1CCC[C@H](O)[C@H](NC(=O)c2ccc(OC(C)(C)C)cc2)C1 | 132 |
| CCC(=O)CCC(=O)c1ccc(F)cc1 | 56 to 57 |
| COC(=O)c1cccc2c1Nc1ccc(I)cc1C2 | 122 to 124 |
| CSc1cc2c(cc1C(F)(F)F)N(C(=O)Nc1cccc(C(=O)NN3CCC(N(C)C)C3)c1)CC2 (stereo not given) | 114 to 116 |
| CNc1nc(Cl)cc(NS(=O)(=O)c2ccccc2)n1 | 186 to 187 |
| CON(Cc1ccc(F)c(F)c1)C(=O)C1=C(O)C(=O)N(C)C1 | 146 to 147 |
| COc1ccc(OC)c(CCC(C)(O)CC2CCCCN2)c1 (stereo not given) | 85 to 90 |
| Cc1nc(C)n(-c2cc([C@@H]3C[C@H]3c3nc4ccccc4n3C)nc(C#N)n2)n1 (relative stereo) | 229 to 231 |
| O=c1[nH]c(=O)n(CCCCBr)c2ccccc12 | 152 to 153 |
| Cn1nc(O)cc1C(F)(F)C(F)(F)F | 119 to 124 |
| NC(=O)Cc1cccc(-c2csc(N=C(N)N)n2)n1 | 254 |
| CC(=O)N1CCC(CCC(=O)c2ccc(N(C)C)cc2)CC1 | 158 to 160 |

The next lines start with the values.

| melting point [°C] | SMILES |
| --- | --- |
| 133 to 135 | CCn1c(=O)n(N(Cc2ccccc2)Cc2ccccc2)c(=O)c2cc(F)c(F)cc21 |
| 190 to 194 | c1ccc(N2CCN(CCc3nnn[nH]3)CC2)cc1 |
| 116 to 118 | CC(C)Cc1nc2ccc(Br)cc2c(-c2ccccc2)c1CO |
| 157 to 158 | CCN(c1nc(C)cc(-c2ccccc2C(F)(F)F)n1)c1c(Br)cc(N(C)C)cc1OC |
| 244 to 246 | Cc1nc2cnccc2n1-c1ccc(OCc2cccc(C(=O)Nc3nc4cc(F)ccc4s3)c2)cc1 |
| 137 to 138 | O=C(N[C@H](Cc1cccc(OC(F)(F)C(F)F)c1)[C@@H](O)c1csc(-c2ccccc2)n1)c1cccc2c1C=CCCC2 (racemic) |
| 119 to 121 | COC(=O)c1ccc(OCc2ccc(Cl)cc2)cc1O |
| 128 to 133 | Cc1ccc(C2N=C(c3ccccc3)NC3=C2CCc2c(-c4ccccc4)cc(-c4ccccc4)nc23)cc1 (stereo not given) |
| 240 to 242 | CCOC(=O)c1nnc2ccc(NC(=O)c3ccccc3OC(C)=O)cc2c1O |
| 68 to 72 | CCSC1(c2cc(F)cc(OCc3ccc4c(ccc(=O)n4C)c3)c2)CCOCC1 |
| 115 to 117 | COc1cc2ccc(CC(=O)O)cc2cc1OC |
| 79 to 81 | CCC(C(=O)N(C)C)n1cc(C)c(-c2ccccc2OC)n1 (stereo not given) |
| 132 to 135 | CCNC(=O)c1ccc(-c2ccc3nnn(C(C)(C)c4ccc5ncccc5c4)c3n2)cc1F |
| 196 to 198 | COc1ccc(C2=NN(c3ccc(C(=O)O)cc3)C(=O)C(C)(C)C2)cc1OC |
| 105 to 106 | Fc1ccc(/C=C/c2nc(COc3cccc(CCCn4ccnn4)c3)co2)cc1 |
| 239 to 240 | CCc1cc(-c2ccc(Cl)cc2)nc2c(C(=O)Nc3cccc(S(=O)(=O)NC(C)(C)CO)c3)cnn12 |
| 250 to 251 | CC(C)(CCc1nnn[nH]1)c1ccc(C(=O)Nc2cn3cc(Cl)ccc3n2)cc1 |
| 223 to 240 | Cc1cc2cc(Nc3ccnc4cc(-c5ccc(C=O)cc5)sc34)ccc2[nH]1 |

| melting point [°C] | SMILES |
| --- | --- |
| 120 to 121 | COCCNC(=O)c1ccc(C(=O)N2CCN(c3ncccc3NC(C)C)CC2)cc1 |
| 175 to 180 | CS(=O)c1ccc2nc(NC(=N)N)nc(-c3ccccc3)c2c1 (stereo not given) |
| 170 to 171 | CC1(C)CCC(C)(C)c2cc(C(C)(O)COc3ccc(C(=O)O)c(O)c3)ccc21 (stereo not given) |
| 183 to 184 | COC(=O)c1cccc(-c2nc(COc3ccc(COc4nn(-c5ccccc5)cc4/C=C/c4nc(N5CCOCC5)sc4C)cc3OC)c(C)o2)c1 |
| 195 to 197 | COc1ccc(C(=O)Nc2ccccc2)cc1NS(=O)(=O)c1cccc(C#N)c1 |
| 262 to 265 | Cc1nc(NC(=O)c2ccc(S(C)(=O)=O)cc2)sc1C(=O)NCc1ccccc1 |
| 144 to 146 | COC(=O)c1cc(-c2ccc(S(C)(=O)=O)cc2)n(-c2ccc(F)cc2)c1 |
| 136 to 137 | O=c1ccsc2c3ccccc3n(CCN3CCOCC3)c12 |
| 111 to 113 | CCOC(=O)c1ccc(NCCOc2ccc(Cl)cc2Cl)cc1 |
| 206 | Cc1cc(-c2ccc(Cl)c(Cl)c2)nc(-c2cccc(-c3cccc(S(N)(=O)=O)c3)c2)n1 |
| 180 | Cc1cc(C)c2nc(NC3CCN(CCCS(N)(=O)=O)CC3)n(Cc3nc(C)ccc3O)c2c1 |
| 173 to 175 | CC(=O)N1CCN=C1Nc1cc(C)nn1-c1cccc(C(F)(F)F)c1 |
| 124 to 128 | COc1ccccc1Oc1c(N)nc(-c2ncccn2)nc1OCCOc1ncc(Br)cn1 |
| 154 to 157 | Cc1cccc(COc2cccc(OCc3ccc4ccccc4n3)c2)c1OCC(=O)O |
| 222 to 224 | O=C(Cc1ccccc1)Nc1cc(-c2ccc(Cl)cc2)[nH]n1 |
| 137 to 138 | CCCc1c(OCC(O)COc2ccc(CC(=O)O)cc2F)ccc(C(C)=O)c1O (stereo not given) |
| 113 to 114 | COC(=O)CCCc1cc2nc(OC)ccc2n1S(=O)(=O)c1ccccc1 |
| 154 | COc1cc2c(cc1OCc1ccccc1)C1Cc3c(Cl)cc(OC)c(OCCO)c3CN1CC2 (stereo not given) |
